From US4866052A, “Treatment of sickle cell disease” (National Research Development Corporation, priority 1986, dated 1989) come the findings set out here.

Assay [1] deals with Normal erythrocytes. Kind of assay: Oxygen dissociation curve / oxygen affinity, normal erythrocytes. The class given is cell-based, human. As to the method:
(§1) (1) A 50% suspension of human erythrocytes in pH 7.09 8BisTris/NaCl buffer005M BisTris(bis(2-hydroxyethyl)imino-tris(hydroxymethyl)methane and 0.13M NaCl was incubated for 15 minutes at 37° C. with the 2:1 zinc(II) complex of 2-ethyl-3-hydroxy-4-pyrone in the presence of an excess of the ligand-forming compound, the complex being formed in situ using zinc sulphate and a 10 molar excess of 2-ethyl-3-hydroxy-4-pyrone (to provide the 2:1 complex and an 8 molar excess of the pyrone). The oxygen dissociation curve of the erythrocytes was then determined using the method of Bellingham and Huehns (Nature, -968, 218, 924-926) which involves measuring the change of OD at two wavelengths (570 and 555 nm) after the sequential measured addition of oxygen in a tanometer. The experiment was conducted using normal erythrocytes, 2,3-diphosphoglyceric acid (DPG) depleted erythrocytes, foetal erythocytes and sickle erythrocytes. A 2.5 mM concentration of zinc was employed in each case together with a proportion of erythrocytes such as to provide a 2:1 ratio of zinc:haemoglobin and consequent saturation of the haemoglobin by zinc, except in one experiment where the proportion was varied to provide a ratio varying from 0.5:1 to 2:1. In each case a control was carried out in the absence of any zinc sulphate or 2-ethyl-3-hydroxy-4-pyrone and in one case two additional controls were carried out in the presence of one of these compounds used alone. The values for p(O2)50 (i.e. the oxygen pressure at which 50% of the haemoglobin is in the oxygenated form) obtained in each case are shown in Table 2 (together with the inferred Zn:Hb ratio) from which it will be seen that the oxygen affinity of normal erythrocytes, and also of sickle erythrocytes, is increased through treatment of the cells with zinc(II) (2-ethyl-3-hydroxy-4-pyrone)2. Foetal erythrocytes, which contain Hb-F and therefore show different characteristics from normal eythrocytes which contain Hb-A, were as expected not affected. […] With sickle erythrocytes the effect is even more marked as is further illustrated in (2) below.
(§2) (2) The effect of the 2:1 2-ethyl-3-hydroxy-4-pyrone:zinc(II) complex on normal and sickle erythrocytes was further compared using a basically similar procedure to that described in (-) above. Concentrations of 2.5 mM ZnSO4 and 25 mM pyrone, and a 2:1 Zn:Hb ratio were again used but the incubation period was extended to 1 hour. In each case a control experiment was carried out in the absence of any zinc sulphate or pyrone.
(3) The effect of different concentrations of the 2:1 2-ethyl-3-hydroxy-4-pyrone:zinc(II) complex upon normal erythrocytes was studied using a basically similar procedure to that described in (l) above but with ZnSO4 concentrations of 0.1, 1 and 10 mM (and ten times these concentrations of the pyrone) and extending the incubation period to 1 hour. A control experiment was carried out in the absence of any zinc sulphate or pyrone.

Assay [2] addresses T1, haemoglobin (Homo sapiens, UniProt P68871+P69905).
T1 construct: A 5% suspension of human erythrocytes in aqueous sodium chloride; endogenous in cells; host or cells: human erythrocytes (intact, 5% suspension)
As to the kind of experiment: Uptake of 65Zn from 2:1 zinc(II) complexes by haemoglobin in human erythrocytes. The class given is cell-based. The following applies: 2:1 zinc complex 5 x 10^-4M with excess ligand, 1 hour, 37° C., pH 7.4, human erythrocytes. How it is done:
(§3) Uptake of zinc from complexes by haemoglobin (1) A 5% suspension of human erythrocytes in aqueous sodium chloride (b 130 mM) buffered to pH 7.4 by 20 mM Tris hydrochloride (2 ml) was incubated for 1 hour at 37° C. with the 2:1 zinc(II) complex in the presence of an excess of the ligand-forming compound. The complex was formed in situ in the buffer using ^65 Zn labelled ZnSO4 at a concentration selected over a range from 1×10^-6 to 4×10^-3 M compound at ten times this concentration and a small amount of Tris free base (to about 2 mM) added to the medium to avoid an acid pH on reaction of the ZnSO4 and the compound to form the complex. Following the period of incubation, an aliquot of the erythrocyte/medium mixture was placed above a layer of silicone oil and the erythrocytes separated by […] centrifugation through the oil. The ^65 Zn levels associated with the erythrocytes and the incubation medium were then counted and the distribution ratio (concentration in erythrocytes/concentration in medium) calculated. The average distribution ratios of zinc obtained in a series of experiments for the homogeneous 2:1 complex from the ligand-providing compounds 3-hydroxy-2methyl-4-pyrone, 2-ethyl-3-hydroxy-4-pyrone and 3-hydroxy-2-(1'-methylethyl)-4-pyrone at a concentration of 5 x 10^-4M are shown in Table 1 together with the percentage of the total amount of zinc which is absorbed in the erythrocytes.

Assay [3] has as its system DPG depleted erythrocytes. As to the kind of experiment: Oxygen dissociation curve / oxygen affinity, DPG depleted erythrocytes. The class given is cell-based, human. The following applies: 2.5 mM ZnSO4 + 25 mM pyrone, Zn:Hb 2:1; control 15.75. How it is done: (§4) (1) A 50% suspension of human erythrocytes in pH 7.09 8BisTris/NaCl buffer005M BisTris(bis(2-hydroxyethyl)imino-tris(hydroxymethyl)methane and 0.13M NaCl was incubated for 15 minutes at 37° C. with the 2:1 zinc(II) complex of 2-ethyl-3-hydroxy-4-pyrone in the presence of an excess of the ligand-forming compound, the complex being formed in situ using zinc sulphate and a 10 molar excess of 2-ethyl-3-hydroxy-4-pyrone (to provide the 2:1 complex and an 8 molar excess of the pyrone). The oxygen dissociation curve of the erythrocytes was then determined using the method of Bellingham and Huehns (Nature, -968, 218, 924-926) which involves measuring the change of OD at two wavelengths (570 and 555 nm) after the sequential measured addition of oxygen in a tanometer. The experiment was conducted using normal erythrocytes, 2,3-diphosphoglyceric acid (DPG) depleted erythrocytes, foetal erythocytes and sickle erythrocytes. A 2.5 mM concentration of zinc was employed in each case together with a proportion of erythrocytes such as to provide a 2:1 ratio of zinc:haemoglobin and consequent saturation of the haemoglobin by zinc, except in one experiment where the proportion was varied to provide a ratio varying from 0.5:1 to 2:1. […]

Assay [4] concerns Foetal erythrocytes. Kind of assay: Oxygen dissociation curve / oxygen affinity, foetal erythrocytes. The class given is cell-based, human. As to the method: as §4
For assay [5], the system named is haemoglobin. Kind of assay: Donation of zinc to haemoglobin, elution profile of 65Zn label on PD-10 column. The class given is binding. As to the method: There was no evidence of any saturation of the rate of uptake over the concentration range studied so that the complex is not actively transported and, in order to account for the high distribution ratios observed, the zinc must therefore dissociate from the complex and bind to a macromolecule or membrane associated with the erythrocyte. The experiment just described was repeated at a concentration of 2.5 mM ^65 ZnSO4 and 25 mM 2-ethyl-3-hydroxy-4-pyrone using erythrocyte ghosts in which the haemoglobin is lacking rather than whole erythrocytes. […] (2) The ability of the zinc(II) complex of 2-ethyl-3-hydroxy-4-pyrone to donate zinc to haemoglobin was investigated by [j studying the elution profile of the ^65 Zn label when a mixture of haemoglobin and the ^65 Zn-labelled complex (at 1 mM concentration)in NaCI (130 mM) buffered to pH 7.4 by Tris hydrochloride is applied to a PD-10 colum (Sephadex […] gel permeation column - Pharmacia).

In assay [6] the test system is erythrocyte ghosts. Kind of assay: Uptake of 65Zn by erythrocyte ghosts lacking haemoglobin. The class given is cell-based, human. The settings on record: 2.5 mM 65ZnSO4 and 25 mM 2-ethyl-3-hydroxy-4-pyrone. How it is done: as §3, with “The average distribution ratios of zinc obtained in a series of experiments for the homogeneous 2:1 complex from the ligand-providing compounds 3-hydroxy-2methyl-4-pyrone, 2-ethyl-3-hydroxy-4-pyrone and 3-hydroxy-2-(1'-methylethyl)-4-pyrone at a concentration of 5 x 10^-4M are shown in Table 1 together with the percentage of the total amount of zinc which is absorbed in the erythrocytes.” left out

The test system of assay [7] is Sickle erythrocytes. Kind of assay: Oxygen dissociation curve / oxygen affinity, sickle erythrocytes. The class given is cell-based, human. How it is done:
as §1, §2

T1 sequence (P69905 2-142 limits assumed): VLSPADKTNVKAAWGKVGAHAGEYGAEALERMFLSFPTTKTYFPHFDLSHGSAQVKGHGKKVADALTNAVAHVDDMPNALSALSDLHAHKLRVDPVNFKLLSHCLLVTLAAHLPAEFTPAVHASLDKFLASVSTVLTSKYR
T1 sequence (P68871 2-147 limits assumed): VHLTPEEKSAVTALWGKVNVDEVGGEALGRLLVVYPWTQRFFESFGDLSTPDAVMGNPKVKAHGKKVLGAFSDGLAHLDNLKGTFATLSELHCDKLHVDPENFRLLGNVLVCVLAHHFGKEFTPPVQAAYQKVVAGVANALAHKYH

`O=S(=O)([O-])[O-].[Zn+2]` [ZnSO4, zinc sulphate, reference compound]: the “P(O2)50” value in assay [1] (2.5 mM ZnSO4 alone, Zn:Hb 2:1, control 26) was 24.5 mmHg.
Consider `CCc1occc(=O)c1O` [pyrone, 2-ethyl-3-hydroxy-4-pyrone, reference compound], for which, in assay [1] (2.5 mM pyrone alone, Zn:Hb 0:1, control 26), the “P(O2)50” value is 28 mmHg.
As for `Cc1occc(=O)c1[O-].Cc1occc(=O)c1[O-].[Zn+2]` [zinc(II) (3-hydroxy-2-methyl--pyrone)2], in assay [2], the “Distribution ratio (concentration in erythrocytes/concentration in medium)” value worked out at 8 and the “Percentage of zinc absorbed” value worked out at 54%.
`CCc1occc(=O)c1[O-].CCc1occc(=O)c1[O-].[Zn+2]` [zinc(II) (2-ethyl-3-hydroxy-4-pyrone)2]: the “P(O2)50” value in assay [3] came to 9.25 mmHg; in assay [4] (2.5 mM ZnSO4 + 25 mM pyrone, Zn:Hb 0:1 (assumed no uptake by HbF), control 22), 24 mmHg; in assay [1] (2.5 mM ZnSO4 + 25 mM pyrone, Zn:Hb 0.5:1, control 30.0) it was 23.5 mmHg; in assay [1] (2.5 mM ZnSO4 + 25 mM pyrone, Zn:Hb 1:1, control 30.0) it was 17.0 mmHg; in assay [1] (2.5 mM ZnSO4 + 25 mM pyrone, Zn:Hb 1.5:1, control 30.0) it was 15.0 mmHg; in assay [1] (2.5 mM ZnSO4 + 25 mM pyrone, Zn:Hb 2:1, control 26) it was 15.5 mmHg. Also, the “P(O2)50” value in assay [1] (2.5 mM ZnSO4 + 25 mM pyrone, Zn:Hb 2:1, control 27.5) worked out at 15 mmHg; in assay [1] (2.5 mM ZnSO4 + 25 mM pyrone, Zn:Hb 2:1, control 30.0), 15.0 mmHg; in assay [7] (2.5 mM ZnSO4 + 25 mM pyrone, Zn:Hb 2:1, control 36), 18.5 mmHg. Also, in assay [2], the “Distribution ratio (concentration in erythrocytes/concentration in medium)” value was 300. Also, the “Percentage of zinc absorbed” value in assay [2] worked out at 96%. Also, the “oxygen affinity (in words)” value was “not affected” in assay [4] (foetal erythrocytes, 2.5 mM zinc, 15 minutes); “increased” in assay [1] (normal erythrocytes, 2.5 mM zinc, 15 minutes); “increased” in assay [7] (sickle erythrocytes, 2.5 mM zinc, 15 minutes). Further, the “shift in the oxygen dissociation curve (in words)” value in assay [1] (2.5 mM ZnSO4, 25 mM pyrone, 1 hour, FIG. 1a) is on record as “a significant left shift in the oxygen dissociation curve”; in assay [1] (complex 0.1 mM, 1 hour, FIG. 2) it was “still a discernible left shift in the oxygen dissociation curve”; in assay [7] (2.5 mM ZnSO4, 25 mM pyrone, 1 hour, FIG. 1b) it was “a significant left shift in the oxygen dissociation curve is produced in both cases but that the difference from the control is more marked for the sickle erythrocytes”. The “p(O2)50, treated cells” value in assay [1] (2.5 mM ZnSO4 and 25 mM pyrone, Zn:Hb 2:1, 1 hour (FIG. 1a), control 27.5) worked out at 15.0 mm Hg; in assay [7] (2.5 mM ZnSO4 and 25 mM pyrone, Zn:Hb 2:1, 1 hour (FIG. 1b), control 36.0), 18.5 mm Hg. The “p(O2)50 shift” value stood at 12.5 mm Hg in assay [1] (2.5 mM ZnSO4 and 25 mM pyrone, Zn:Hb 2:1, 1 hour, versus control, normal erythrocytes); 17.5 mm Hg in assay [7] (2.5 mM ZnSO4 and 25 mM pyrone, Zn:Hb 2:1, 1 hour, versus control, sickle erythrocytes). For the same compound, the “dose response of shift in the oxygen dissociation curve (in words)” value in assay [1] (ZnSO4 0.1, 1 and 10 mM with ten times pyrone, 1 hour, FIG. 2) is recorded as “dose response effect”. Also, the “binding of zinc to haemoglobin (in words)” value in assay [5] (1 mM complex, 20-fold molar proportion of ligand:zinc, NaCl 130 mM, pH 7.4) was “the zinc is found to bind tightly to haemoglobin”. Further, in assay [5] (haemoglobin versus 2-ethyl-3-hydroxy-4-pyrone), the “binding of zinc to haemoglobin versus ligand (in words)” value is listed as “zinc binds more tightly to haemoglobin than to 2-ethyl-3-hydroxy-4-pyrone”. Besides, the “uptake of zinc by erythrocyte ghosts (in words)” value in assay [6] is reported as “Only a low level of uptake of zinc was observed”.
As for `CC(C)c1occc(=O)c1[O-].CC(C)c1occc(=O)c1[O-].[Zn+2]` [zinc(II) (3-hydroxy-2-(2'-methylethyl)-4-pyrone)2], in assay [2], the “Distribution ratio (concentration in erythrocytes/concentration in medium)” value is 550 and the “Percentage of zinc absorbed” value is 98%.
